Test results reported in ChEMBL document CHEMBL6092143, “Synthesis and evaluation of lipoic acid - donepezil hybrids for Alzheimer's disease using a straightforward strategy” (Bioorg Med Chem Lett, 2024).
Calls of active or inactive are those of the source. The rule behind the calls is not given here.

Columns and labels:
[1] = Antioxidant activity assessed as DPPH radical scavenging activity incubated for 2 hrs under dark condition by absorbance based assay; type: functional
SK-N-BE(2) [2] = assay: Cytotoxicity against human SK-N-BE(2) cells upto 100 uM incubated for 3 hrs by MTT assay; type: toxicity, cell-based
[3] = Antioxidant activity assessed as ABTS radical scavenging activity measured after 6 mins by absorbance based assay; type: functional
SK-N-BE(2) [4] = assay: Inhibition of t-BHP-induced ROS production in human SK-N-BE(2) cells at 100 uM incubated for 3 hrs by DCFH-DA probe based analysis; type: functional, cell-based
HepG2 = assay: Cytotoxicity against human HepG2 cells upto 100 uM incubated for 3 hrs by MTT assay; details: hepg2, 3 h
[5] = Antioxidant activity assessed as trolox equivalent of ORAC radical scavenging activity incubated for 15 mins by fluorescence based assay; type: functional
Cholinesterase = Cholinesterase (Homo sapiens, UniProt P06276); assay: Inhibition of human BChE by Ellman's method
Chain of Cholinesterase (P06276 whole entry): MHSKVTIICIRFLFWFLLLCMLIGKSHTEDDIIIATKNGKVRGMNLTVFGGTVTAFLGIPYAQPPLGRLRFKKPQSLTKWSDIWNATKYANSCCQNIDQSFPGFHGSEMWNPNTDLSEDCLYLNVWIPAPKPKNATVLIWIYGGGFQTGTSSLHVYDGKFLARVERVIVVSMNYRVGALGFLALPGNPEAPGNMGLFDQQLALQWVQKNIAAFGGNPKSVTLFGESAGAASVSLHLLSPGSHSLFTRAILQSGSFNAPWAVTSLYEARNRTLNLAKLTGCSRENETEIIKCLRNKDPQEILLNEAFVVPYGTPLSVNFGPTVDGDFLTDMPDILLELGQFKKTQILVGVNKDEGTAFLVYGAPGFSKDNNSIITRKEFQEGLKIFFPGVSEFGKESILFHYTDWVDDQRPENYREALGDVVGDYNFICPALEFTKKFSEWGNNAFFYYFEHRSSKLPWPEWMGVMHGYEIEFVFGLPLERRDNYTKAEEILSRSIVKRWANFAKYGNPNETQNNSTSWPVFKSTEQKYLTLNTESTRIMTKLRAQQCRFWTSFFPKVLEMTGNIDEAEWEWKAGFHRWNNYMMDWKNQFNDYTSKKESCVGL

Acetylcholinesterase = Acetylcholinesterase (Homo sapiens, UniProt P22303); assay: Inhibition of human erythrocyte AChE using acetylthiocholine iodide as substrate preincubated for 10 mins followed by substrate addition measured after 15 mins by Ellman's method
Chain of Acetylcholinesterase (P22303 whole entry): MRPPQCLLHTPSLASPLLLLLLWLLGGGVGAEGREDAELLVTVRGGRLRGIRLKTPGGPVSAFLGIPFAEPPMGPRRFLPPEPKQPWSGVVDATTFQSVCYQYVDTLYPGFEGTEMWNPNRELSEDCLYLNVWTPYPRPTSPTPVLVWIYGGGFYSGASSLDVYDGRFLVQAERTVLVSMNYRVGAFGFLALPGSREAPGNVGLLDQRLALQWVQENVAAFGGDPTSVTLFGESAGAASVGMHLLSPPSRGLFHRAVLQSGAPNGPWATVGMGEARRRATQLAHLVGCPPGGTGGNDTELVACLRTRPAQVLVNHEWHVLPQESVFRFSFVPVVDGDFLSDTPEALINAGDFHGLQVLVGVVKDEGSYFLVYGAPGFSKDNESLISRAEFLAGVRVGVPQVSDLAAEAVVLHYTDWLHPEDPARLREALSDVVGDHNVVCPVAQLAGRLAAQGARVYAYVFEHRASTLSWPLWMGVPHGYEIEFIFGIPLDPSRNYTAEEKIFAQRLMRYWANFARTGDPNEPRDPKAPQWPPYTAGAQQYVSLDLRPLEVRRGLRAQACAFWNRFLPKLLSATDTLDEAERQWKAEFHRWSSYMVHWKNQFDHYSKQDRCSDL

[6] = Solubility of compound; type: physicochemical

Compound | EC50 [1] | Activity (SK-N-BE(2) [2]) | EC50 [3] | ROS inhibition activity (qualitative) (SK-N-BE(2) [4]) | Activity (HepG2) | Activity [5] | IC50 (Cholinesterase) | IC50 (Acetylcholinesterase) | solubility [6]
COc1cc2c(cc1OCCCCCC1CCSS1)C(=O)C(CC1CCN(Cc3ccccc3)CC1)C2 (stereo unspecified) | > 400 µM | Non-toxic | > 400 µM | Active; More Pronounced Effect Than Lipoic Acid | Non-toxic | < 0.5 | 1.48 µM | 0.00763 µM | –
COc1cc2c(cc1OCCCCCC1CCSS1)CC(CC1CCN(Cc3ccccc3)CC1)C2=O (stereo unspecified) | > 400 µM | Non-toxic | > 400 µM | Active; More Pronounced Effect Than Lipoic Acid | Non-toxic | < 0.5 | 3.26 µM | 0.00912 µM | Insoluble
COc1cc2c(cc1O)C(=O)C(CC1CCN(Cc3ccccc3)CC1)C2 (stereo unspecified) | > 400 µM | Non-toxic | 152 µM | inactive | Non-toxic | 9.4 | 34.5 µM | 0.872 µM | –
COc1cc2c(cc1O)CC(CC1CCN(Cc3ccccc3)CC1)C2=O (stereo unspecified) | 32.5 µM | – | 8.5 µM | – | – | 2.1 | 35.8 µM | 0.773 µM | –
O=c1c(O)c(-c2ccc(O)c(O)c2)oc2cc(O)cc(O)c12 [QUERCETIN] | 13.8 µM | – | 3.4 µM | – | – | 4 | – | – | –
COc1cc2c(cc1OC)C(=O)C(CC1CCN(Cc3ccccc3)CC1)C2 (stereo unspecified) [DONEPEZIL] | > 1000 µM | Non-toxic | > 1000 µM | inactive | Non-toxic | < 0.5 | – | – | –
Cc1c(C)c2c(c(C)c1O)CC[C@@](C)(CCC[C@H](C)CCC[C@H](C)CCCC(C)C)O2 [ALPHA-TOCOPHEROL] | 27.5 µM | Non-toxic | 15.5 µM | Active | Non-toxic | 1 | – | – | –
O=C(O)CCCC[C@@H]1CCSS1 [THIOCTIC ACID] | – | Non-toxic | – | Active | Non-toxic | – | – | – | –
COc1cc2c(cc1OC(=O)CCCCC1CCSS1)C(=O)C(CC1CCN(Cc3ccccc3)CC1)C2 (stereo unspecified) | > 400 µM | Non-toxic | > 400 µM | inactive | Non-toxic | < 0.5 | 3.99 µM | 0.0278 µM | Insoluble
O=C1c2cc(O)c(O)cc2CC1CC1CCN(Cc2ccccc2)CC1 (stereo unspecified) | 29.5 µM | Non-toxic | 12.3 µM | Active; Activity Comparable To Vitamin E | Non-toxic | 2.2 | 246 µM | 1.81 µM | soluble
